{"source": "patent US20080118980A1", "about": "“Estrogen Enhancing Differentiation of Human Mesenchymal Stromal Cells and Adipose-derived Stromal Cells” (The Board of Trustees of the University of Illinois,, priority 2006, published 2008)", "system": "human ASCs", "test": "Adipogenic differentiation of ASCs modulated by E2 (Example 2)", "format": "cell-based", "conditions": "for increase of elution of Oil-O-Red staining: vs differentiation without estrogen, FIG. 7C", "description": "Because estrogen receptors (ERs) exist in adipose tissues (Dieudonne et al. (2004) Am J Physiol Cell Physiol. 286:C655-661), it is hypothesized that estrogen can also modulate the differentiation potentials of ASCs. All the experiments using human ASCs were performed under an approved IRB protocol of the University of Illinois at Chicago. Human abdomen subcutaneous adipose tissue was obtained from a healthy person with lipo-aspirated surgery. ASCs were isolated from adipose tissue according to previous studies (Hong et al. (2006) Cells Tissues Organs. 183 (3):133-40). Briefly, adipose tissue was finely minced and then digested with 0.075 wt % collagenase type I (Sigma, St Louis, Mo.) at 37° C. for 45 min with intermittent shaking. The cells were collected by filtration with a cell strainer with pore size of 100 μm diameter (Fisher Scientific, Barrington, Ill.). The harvested cells were cultured in a Dulbecco's Modified Eagle's Medium (DMEM), 15% fetal bovine serum (FBS) and 1% antibiotic-antimycotic at 10^6 cells/100 mm dish. Upon reaching 80-90% confluence, the isolated cells were trypsinized, counted, and subcultured at a density of 10^5 cells/100 mm dish as passage-1. The cells used for study are passage-3.\nThe basic DMEM medium supplemented with 50 nM of dexamethasone, […] and 5 mM of isobutyl-methylxanthine (IBMX) was used to differentiate ASCs into adipocytes (Hong et al. (2005) Ann Biomed Eng. 33:511-517). At 70% confluence of ASCs in 12-well plates, the basic DMEM medium was exchanged for the adipogenic differentiation medium. The effects of estrogen on adipogenic differentiation were observed after E2 supplements at concentrations ranging from 10^−8 to 10^−11M. On day 4, the cells were collected for analysis of adipogenic and ER gene expressions. On day 7, adipogenic differentiation of ASCs modulated by estrogen was analyzed by Oil-O-Red staining and quantitative measurements. Each treatment group included four samples.\nOn the defined day, cells cultured in 12-well plates were washed twice with phosphate buffered solution (PBS), suspended and lysed in 1% Triton-X100 solution (Sigma, St. Louis, Mo.). The collected cells were subsequently homogenized using sonication (Dismembrator Model 100, Fisher Scientific, Barrington, Ill.). The DNA content in the cells was determined by a fluorometric assay using a spectrofluorometer and DNA quantification kit (Hoechst 33258, Bio-Rad, Hercules, Calif.). The total protein concentrations of lysates were measured by a simple colorimetric assay based on the Bradford dye-binding procedure (Bio-Rad, Hercules, Calif.). The amount of protein was normalized by the unit of DNA.\nAfter 7 days of incubation with adipogenic differentiation medium supplemented with different concentrations of E2, cultured cells were fixed in 10% neutral buffered formalin for 15 min and washed with PBS twice. Cells were immersed in a 60% Oil-O-Red solution in PBS (Sigma, St Louis, Mo.) for 60 min. In order to quantify adipogenic potentials, the images of Oil-O-Red stained at each well were randomly taken by a digital camera connected to a computer monitor. The Oil-O-Red positive cells on the screen were double-blindly counted. Five pictures were taken from each well. The cell numbers were normalized to per mm^2. Oil-O-Red dye then was eluted by 500 μl of 100% isopropanol for each well of cultured cells. The spectrophotometric absorbance of the resulting solution was quantified at 510 nm.\nTotal RNA was extracted from the various differentiated cells using TRizol reagent (Invitrogen, Carlsbad, Calif.). Approximately 5 μg of total RNA was converted to single stranded cDNA using a commercial cDNA synthesis kit (Invitrogen, Carlsbad, Calif.). […]", "data": [{"smiles": "C[C@]12CC[C@@H]3c4ccc(O)cc4CC[C@H]3[C@@H]1CC[C@@H]2O", "note": "[E2, 17-β estradiol]", "values": [{"measurement": "ERβ expression (RT-PCR)", "setting": "4 days, FIG. 6", "value": "undetected"}, {"measurement": "ERα expression (RT-PCR)", "setting": "4 days, no ERα band without E2 supplement, FIG. 6", "value": "expressed"}, {"measurement": "DNA amount", "setting": "7 days adipogenic media with E2 supplements, FIG. 7A", "value": "decreased"}, {"measurement": "number of Oil-O-Red positively stained cells", "setting": "7 days, FIG. 7B", "value": "increased"}, {"measurement": "population of lipid-containing cells", "setting": "ASCs after E2 supplement, Oil-O-Red staining", "value": "increased population"}, {"measurement": "increase of elution of Oil-O-Red staining", "setting": "estrogen 10^−8 M, 7 days", "value": 33.9, "unit": "%"}, {"measurement": "increase of elution of Oil-O-Red staining", "setting": "estrogen 10^−9 M, 7 days", "value": 25.5, "unit": "%"}, {"measurement": "effects on adipogenesis at low concentrations", "setting": "estrogen supplement at low concentrations", "value": "hardly observed"}]}]}
